According to ChEMBL document CHEMBL1136751 (J Med Chem, 2003):

Assays:
[1] = biological target: T1, Peroxisome proliferator-activated receptor gamma (Homo sapiens, UniProt P37231)
T1 sequence (P37231 whole entry): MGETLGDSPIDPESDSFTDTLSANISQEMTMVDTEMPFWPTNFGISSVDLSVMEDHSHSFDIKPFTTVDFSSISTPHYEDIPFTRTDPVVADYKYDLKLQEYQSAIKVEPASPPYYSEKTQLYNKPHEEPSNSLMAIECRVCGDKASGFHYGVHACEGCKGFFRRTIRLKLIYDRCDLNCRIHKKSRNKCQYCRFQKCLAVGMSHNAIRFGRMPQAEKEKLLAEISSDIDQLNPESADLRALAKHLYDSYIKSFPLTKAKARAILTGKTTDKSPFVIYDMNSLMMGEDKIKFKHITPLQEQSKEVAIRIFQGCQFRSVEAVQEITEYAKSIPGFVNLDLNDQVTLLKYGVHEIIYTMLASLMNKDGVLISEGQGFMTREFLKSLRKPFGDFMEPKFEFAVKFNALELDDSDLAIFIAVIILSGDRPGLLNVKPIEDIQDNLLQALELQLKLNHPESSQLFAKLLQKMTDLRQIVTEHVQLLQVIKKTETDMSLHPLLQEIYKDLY
Description: Receptor binding affinity to human Peroxisome proliferator activated receptor gamma against [3H]ragalitazar radioligand

[2] = biological target: T2, Peroxisome proliferator-activated receptor alpha (Homo sapiens, UniProt Q07869); experiment: Receptor binding affinity to human Peroxisome proliferator activated receptor alpha against [3H]-NNC 0061-4655 radioligand
T2 sequence (Q07869 whole entry): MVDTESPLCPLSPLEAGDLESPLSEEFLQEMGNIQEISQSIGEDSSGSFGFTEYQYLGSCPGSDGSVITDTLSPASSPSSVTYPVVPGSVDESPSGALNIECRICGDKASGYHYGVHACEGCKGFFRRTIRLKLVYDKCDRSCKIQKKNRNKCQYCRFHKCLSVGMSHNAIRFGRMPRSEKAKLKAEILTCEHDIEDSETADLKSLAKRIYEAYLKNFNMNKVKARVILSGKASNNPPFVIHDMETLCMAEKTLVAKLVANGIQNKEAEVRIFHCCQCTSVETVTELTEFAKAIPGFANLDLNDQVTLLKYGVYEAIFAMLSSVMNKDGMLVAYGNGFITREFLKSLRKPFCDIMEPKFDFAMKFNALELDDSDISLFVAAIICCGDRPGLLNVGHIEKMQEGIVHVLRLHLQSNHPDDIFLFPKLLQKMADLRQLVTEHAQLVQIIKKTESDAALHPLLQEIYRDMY

[3] = biological target: T1, Peroxisome proliferator-activated receptor gamma; remark: listed apart in the source
Description: Agonistic activity for human Peroxisome proliferator activated receptor gamma

[4] = biological target: T2, Peroxisome proliferator-activated receptor alpha; experiment: Agonistic activity for Peroxisome proliferator activated receptor alpha; assay type: functional

Row | EC50 [4] [nM] | SMILES | IC50 [1] [nM] | IC50 [2] [nM] | EC50 [3] [nM]
1 | – | CCO[C@H](Cc1ccc(OCCN2c3ccccc3Oc3ccccc32)cc1)C(=O)O | > 10000 | > 10000 | –
2 | 1200 | CCO[C@@H](Cc1ccc(OCCc2ccc(OS(C)(=O)=O)cc2)cc1)C(=O)O [TESAGLITAZAR] | 350 | 3800 | 1300
3 | – | CCO[C@@H](Cc1ccc(OCCN2c3ccccc3Oc3ccccc32)cc1)C(=O)O [RAGAGLITAZAR] | – | 980 | 600
